Values of other authors as cited in US20090208616A1, “INTERVENTION TECHNIQUES FOR REDUCING CARCASS CONTAMINATION” (priority 2000, published 2009).
Like-named read-outs stand apart in the source and are kept apart here.

Test system: Giardia Cysts

NCl [Chloramine]
CT value for 0.5-log inactivation of Giardia cysts by chloramine (pH range 6 to 9, 5 ° C.): 365 mg/L-min
CT value for 1-log inactivation of Giardia cysts by chloramine (pH range 6 to 9, 5 ° C.): 735 mg/L-min
CT value for 1.5-log inactivation of Giardia cysts by chloramine (pH range 6 to 9, 5 ° C.): 1100 mg/L-min
CT value for 2-log inactivation of Giardia cysts by chloramine (pH range 6 to 9, 5 ° C.): 1470 mg/L-min
CT value for 2.5-log inactivation of Giardia cysts by chloramine (pH range 6 to 9, 5 ° C.): 1830 mg/L-min
CT value for 3-log inactivation of Giardia cysts by chloramine (pH range 6 to 9, 5 ° C.): 2200 mg/L-min
CT value for 0.5-log inactivation of Giardia cysts by chloramine (pH range 6 to 9, 10 ° C.): 310 mg/L-min
CT value for 1-log inactivation of Giardia cysts by chloramine (pH range 6 to 9, 10 ° C.): 615 mg/L-min
CT value for 1.5-log inactivation of Giardia cysts by chloramine (pH range 6 to 9, 10 ° C.): 930 mg/L-min
CT value for 2-log inactivation of Giardia cysts by chloramine (pH range 6 to 9, 10 ° C.): 1230 mg/L-min
CT value for 2.5-log inactivation of Giardia cysts by chloramine (pH range 6 to 9, 10 ° C.): 1540 mg/L-min
CT value for 3-log inactivation of Giardia cysts by chloramine (pH range 6 to 9, 10 ° C.): 1850 mg/L-min
CT value for 0.5-log inactivation of Giardia cysts by chloramine (pH range 6 to 9, 15 ° C.): 250 mg/L-min
CT value for 1-log inactivation of Giardia cysts by chloramine (pH range 6 to 9, 15 ° C.): 500 mg/L-min
CT value for 1.5-log inactivation of Giardia cysts by chloramine (pH range 6 to 9, 15 ° C.): 750 mg/L-min
CT value for 2-log inactivation of Giardia cysts by chloramine (pH range 6 to 9, 15 ° C.): 1000 mg/L-min
CT value for 2.5-log inactivation of Giardia cysts by chloramine (pH range 6 to 9, 15 ° C.): 1250 mg/L-min
CT value for 3-log inactivation of Giardia cysts by chloramine (pH range 6 to 9, 15 ° C.): 1500 mg/L-min
CT value for 0.5-log inactivation of Giardia cysts by chloramine (pH range 6 to 9, 20 ° C.): 185 mg/L-min
CT value for 1-log inactivation of Giardia cysts by chloramine (pH range 6 to 9, 20 ° C.): 370 mg/L-min
CT value for 1.5-log inactivation of Giardia cysts by chloramine (pH range 6 to 9, 20 ° C.): 550 mg/L-min
CT value for 2-log inactivation of Giardia cysts by chloramine (pH range 6 to 9, 20 ° C.): 735 mg/L-min
CT value for 2.5-log inactivation of Giardia cysts by chloramine (pH range 6 to 9, 20 ° C.): 915 mg/L-min
CT value for 3-log inactivation of Giardia cysts by chloramine (pH range 6 to 9, 20 ° C.): 1100 mg/L-min
CT value for 0.5-log inactivation of Giardia cysts by chloramine (pH range 6 to 9, 25 ° C.): 125 mg/L-min
CT value for 1-log inactivation of Giardia cysts by chloramine (pH range 6 to 9, 25 ° C.): 250 mg/L-min
CT value for 1.5-log inactivation of Giardia cysts by chloramine (pH range 6 to 9, 25 ° C.): 375 mg/L-min
CT value for 2-log inactivation of Giardia cysts by chloramine (pH range 6 to 9, 25 ° C.): 500 mg/L-min
CT value for 2.5-log inactivation of Giardia cysts by chloramine (pH range 6 to 9, 25 ° C.): 625 mg/L-min
CT value for 3-log inactivation of Giardia cysts by chloramine (pH range 6 to 9, 25 ° C.): 750 mg/L-min
CT value for 0.5-log inactivation of Giardia cysts by chloramine (pH range 6 to 9, ≦1 ° C.): 635 mg/L-min
CT value for 1-log inactivation of Giardia cysts by chloramine (pH range 6 to 9, ≦1 ° C.): 1270 mg/L-min
CT value for 1.5-log inactivation of Giardia cysts by chloramine (pH range 6 to 9, ≦1 ° C.): 1900 mg/L-min
CT value for 2-log inactivation of Giardia cysts by chloramine (pH range 6 to 9, ≦1 ° C.): 2535 mg/L-min
CT value for 2.5-log inactivation of Giardia cysts by chloramine (pH range 6 to 9, ≦1 ° C.): 3170 mg/L-min
CT value for 3-log inactivation of Giardia cysts by chloramine (pH range 6 to 9, ≦1 ° C.): 3800 mg/L-min
